From patent US20130302442A1, “METHODS OF USING (4S,4AS,5AR,12AS)-4-DIMETHYLAMINO-3,10,12,12A-TETRAHYDROXY-7-[(METHOXY(METHYL)AMINO)-METHYL]-1,11-DIOXO-1,4,4A,5,5A,6,11,12A-OCTAHYDRO-NAPHTHACENE-2-CARBOXYLIC ACID AMIDE” (priority 2012, published 2013)
Values after ≈ are worked out from the molar mass of the structure shown. Where two headings read alike, the source gives them in different places.

How the values were obtained:
Salmonella Spp. = assay: In vitro MIC testing, antibacterial spectrum of activity; type: cell-based; details: for MIC50 / MIC90: Salmonella
K. pneumoniae = assay: as above; type: cell-based; details: K. pneumoniae (31 isolates); for MIC50 / MIC90: Klebsiella pneumoniae
E. cloacae = assay: as above; type: cell-based; details: Enterobacter cloacae; E. cloacae (30 isolates)
P. aeruginosa = assay: as above; type: cell-based; details: P. aeruginosa (11 isolates); for MIC50 / MIC90: Pseudomonas aeruginosa
P. mirabilis = assay: as above; type: cell-based; details: Proteus mirabilis; P. mirabilis (30 isolates)
E. coli = assay: as above; type: cell-based; details: Escherichia coli
P. acnes = assay: as above; type: cell-based, Propionibacterium acnes
E. faecalis = assay: as above; type: cell-based; details: for MIC50 / MIC90: Enterococcus faecalis
S. agalactiae = assay: as above; type: cell-based
E. faecium = assay: as above; type: cell-based; details: for MIC50 / MIC90: Enterococcus faecium
S. aureus = assay: as above; type: cell-based, Staphylococcus aureus; details: for MIC50 / MIC90: Staphylococcus aureus
S. pneumoniae = assay: as above; type: cell-based, Streptococcus pneumoniae
S. epidermidis = assay: as above; type: cell-based, Staphylococcus epidermidis; details: for MIC50 / MIC90: Staphylococcus epidermidis
S. pyogenes = assay: as above; type: cell-based
S. haemolyticus = assay: as above; type: cell-based; details: for MIC50 / MIC90: Staphylococcus haemolyticus
[1] = test system: Streptococcus spp. [Group C]; assay: as above; type: cell-based
[2] = test system: community-acquired methicillin-resistant S. aureus (MRSA-CA); assay: In vitro MIC against isolates of MRSA-CA; type: cell-based, Staphylococcus aureus; details: for MIC50 / MIC90: Staphylococcus aureus
[3] = test system: methicillin-sensitive S. aureus (MSSA); assay: In vitro MIC against isolates of MSSA; type: cell-based, Staphylococcus aureus; details: for MIC Range / MIC50 / MIC90: MSSA (34 isolates); for MIC50 / MIC90: Staphylococcus aureus; for MIC90: read-out: MIC90
[4] = test system: hospital-associated methicillin-resistant S. aureus (MRSA-HA); assay: In vitro MIC against isolates of MRSA-HA; type: cell-based, Staphylococcus aureus; details: for MIC50 / MIC90: Staphylococcus aureus
[5] = MRSA, S. aureus [MRSA] (31 isolates), read-out: MIC50
[6] = MRSA, S. aureus [MRSA] (31 isolates), read-out: MIC90
[7] = MSSA, S. aureus [MSSA] (32 isolates), read-out: MIC50
[8] = MSSA, S. aureus [MSSA] (32 isolates), read-out: MIC90
[9] = S. epidermidis [MRSE] (32 isolates), read-out: MIC50
[10] = S. epidermidis [MRSE] (32 isolates), read-out: MIC90
[11] = S. epidermidis [MSSE] (31 isolates), read-out: MIC50
[12] = S. epidermidis [MSSE] (31 isolates), read-out: MIC90
[13] = S. haemolyticus (33 isolates), read-out: MIC50
[14] = S. haemolyticus (33 isolates), read-out: MIC90
[15] = S. epidermidis [MSSE] (31 isolates)
[16] = S. pneumoniae [PSSP] (32 isolates)
[17] = Streptococcus spp. [Group C] (30 isolates)

## CC(=O)OCC1=C(C(=O)O)N2C(=O)[C@@H](NC(=O)Cc3cccs3)[C@H]2SC1 [Cephalothin]
Salmonella Spp.
  MIC50: 2 µg/mL (≈ 5.04 µM)
  MIC90: 16 µg/mL (≈ 40.4 µM)
K. pneumoniae
  MIC Range: >64 µg/mL
  MIC50: > 64 µg/mL
  MIC90: > 64 µg/mL
E. cloacae
  MIC50: > 64 µg/mL
  MIC90: > 64 µg/mL
P. aeruginosa
  MIC Range: >64 µg/mL
  MIC50: > 64 µg/mL
  MIC90: > 64 µg/mL
P. mirabilis
  MIC50: 8 µg/mL (≈ 20.2 µM)
  MIC90: > 64 µg/mL
E. coli
  MIC90: > 64 µg/mL

## O=C(O)c1cn(C2CC2)c2cc(N3CCNCC3)c(F)cc2c1=O [Ciprofloxacin]
Salmonella Spp.
  MIC50: 0.015 µg/mL (≈ 0.0453 µM)
  MIC90: 0.03 µg/mL (≈ 0.0905 µM)
Salmonella Spp.; Salmonella Spp. (35 isolates)
  MIC Range: 0.015 to 0.25 µg/mL
K. pneumoniae
  MIC50: > 2 µg/mL
  MIC90: > 2 µg/mL
P. aeruginosa
  MIC50: > 2 µg/mL
  MIC90: > 2 µg/mL
P. mirabilis
  MIC50: > 2 µg/mL
  MIC90: > 2 µg/mL
E. coli
  MIC50: 0.015 µg/mL (≈ 0.0453 µM)
  MIC90: > 2 µg/mL

## CC[C@H]1OC(=O)[C@H](C)[C@@H](O[C@H]2C[C@@](C)(OC)[C@@H](O)[C@H](C)O2)[C@H](C)[C@@H](O[C@@H]2O[C@H](C)C[C@H](N(C)C)[C@H]2O)[C@](C)(O)C[C@@H](C)C(=O)[C@H](C)[C@@H](O)[C@]1(C)O [Erythromycin]
P. acnes; Cutibacterium acnes, read-out: MIC50
  MIC50: ≤ 0.06 µg/mL
P. acnes; Cutibacterium acnes, read-out: MIC90
  MIC90: > 128 µg/mL
E. faecalis
  MIC50: > 32 µg/mL
  MIC90: > 32 µg/mL
S. agalactiae; Streptococcus agalactiae
  MIC50: 0.06 µg/mL (≈ 0.0818 µM)
  MIC90: > 16 µg/mL
E. faecium
  MIC50: > 32 µg/mL
  MIC90: > 32 µg/mL
E. faecium; VRE
  MIC50: > 32 µg/mL
  MIC90: > 32 µg/mL
S. aureus; [5]
  MIC50: > 32 µg/mL
S. aureus; [6]
  MIC90: > 32 µg/mL
S. aureus; [7]
  MIC50: 0.5 µg/mL (≈ 0.681 µM)
S. aureus; [8]
  MIC90: > 32 µg/mL
S. pneumoniae; Streptococcus pneumoniae, S. pneumoniae [PSSP] (32 isolates), read-out: MIC50
  MIC50: 0.03 µg/mL (≈ 0.0409 µM)
S. pneumoniae; Streptococcus pneumoniae, S. pneumoniae [PSSP] (32 isolates), read-out: MIC90
  MIC90: 2 µg/mL (≈ 2.73 µM)
S. epidermidis; [9]
  MIC50: > 32 µg/mL
S. epidermidis; [10]
  MIC90: > 32 µg/mL
S. epidermidis; [11]
  MIC50: 0.25 µg/mL (≈ 0.341 µM)
S. epidermidis; [12]
  MIC90: > 32 µg/mL
S. pyogenes; Streptococcus pyogenes
  MIC50: 0.06 µg/mL (≈ 0.0818 µM)
  MIC90: 0.06 µg/mL (≈ 0.0818 µM)
S. haemolyticus; [13]
  MIC50: > 32 µg/mL
S. haemolyticus; [14]
  MIC90: > 32 µg/mL
[1]; Streptococcus spp. [Group C] (30 isolates), read-out: MIC50
  MIC50: 0.06 µg/mL (≈ 0.0818 µM)
[1]; Streptococcus spp. [Group C] (30 isolates), read-out: MIC90
  MIC90: 4 µg/mL (≈ 5.45 µM)

## CC(=O)NC[C@H]1CN(c2ccc(N3CCOCC3)c(F)c2)C(=O)O1 [Linezolid]
[2]; MRSA-CA (33 isolates)
  MIC Range: 2 to 4 µg/mL
  MIC50: 2 µg/mL (≈ 5.93 µM)
  MIC90: 4 µg/mL (≈ 11.9 µM)
[2]; all MRSA-CA test organisms
  susceptibility of the test organisms: susceptible
[3]
  MIC Range: 2 to 4 µg/mL
  MIC50: 2 µg/mL (≈ 5.93 µM)
  MIC90: 4 µg/mL (≈ 11.9 µM)
[3]; all MSSA test organisms
  susceptibility of the test organisms: susceptible
[4]; MRSA-HA (33 isolates)
  MIC Range: 2 to 4 µg/mL
  MIC50: 2 µg/mL (≈ 5.93 µM)
  MIC90: 2 µg/mL (≈ 5.93 µM)
[4]; all MRSA-HA organisms
  susceptibility of the test organisms: susceptible

## Cc1onc(-c2ccccc2)c1C(=O)N[C@@H]1C(=O)N2[C@@H]1SC(C)(C)[C@@H]2C(=O)O [Oxacillin]
[2]; MRSA-CA (33 isolates)
  MIC50: 32 µg/mL (≈ 79.7 µM)
  MIC90: > 32 µg/mL
[3]
  MIC Range: 0.25 to 2 µg/mL
  MIC50: 0.25 µg/mL (≈ 0.623 µM)
  MIC90: 0.5 µg/mL (≈ 1.25 µM)
S. aureus; S. aureus [MSSA] (32 isolates)
  MIC Range: 0.12 to 1 µg/mL
S. aureus; [5]
  MIC50: > 32 µg/mL
S. aureus; [6]
  MIC90: > 32 µg/mL
S. aureus; [7]
  MIC50: 0.5 µg/mL (≈ 1.25 µM)
S. aureus; [8]
  MIC90: 1 µg/mL (≈ 2.49 µM)
S. epidermidis; [15]
  MIC Range: 0.06 to 0.25 µg/mL
S. epidermidis; [9]
  MIC50: 32 µg/mL (≈ 79.7 µM)
S. epidermidis; [10]
  MIC90: > 32 µg/mL
S. epidermidis; [11]
  MIC50: 0.12 µg/mL (≈ 0.299 µM)
S. epidermidis; [12]
  MIC90: 0.25 µg/mL (≈ 0.623 µM)
[4]; MRSA-HA (33 isolates)
  MIC50: 32 µg/mL (≈ 79.7 µM)
  MIC90: > 32 µg/mL
S. haemolyticus; [13]
  MIC50: 0.25 µg/mL (≈ 0.623 µM)
S. haemolyticus; [14]
  MIC90: > 32 µg/mL

## CN[C@H](CC(C)C)C(=O)N[C@H]1C(=O)N[C@@H](CC(N)=O)C(=O)N[C@H]2C(=O)N[C@H]3C(=O)N[C@H](C(=O)N[C@H](C(=O)O)c4cc(O)cc(O)c4-c4cc3ccc4O)[C@H](O)c3ccc(c(Cl)c3)Oc3cc2cc(c3O[C@@H]2O[C@H](CO)[C@@H](O)[C@H](O)[C@H]2O[C@H]2C[C@](C)(N)[C@H](O)[C@H](C)O2)Oc2ccc(cc2Cl)[C@H]1O [Vancomycin]
P. acnes
  MIC Range: 0.5-0.5 μg/mL
E. faecalis; E. faecalis [VSE] (31 isolates)
  MIC Range: 0.5 to 4 µg/mL
E. faecalis
  MIC50: 1 µg/mL (≈ 0.69 µM)
  MIC90: 2 µg/mL (≈ 1.38 µM)
S. agalactiae; S. agalactiae (31 isolates)
  MIC Range: 0.25 to 2 µg/mL
S. agalactiae; Streptococcus agalactiae
  MIC50: 0.5 µg/mL (≈ 0.345 µM)
  MIC90: 0.5 µg/mL (≈ 0.345 µM)
E. faecium; E. faecium [VRE] (30 isolates)
  MIC Range: >64 µg/mL
E. faecium; E. faecium [VSE] (32 isolates)
  MIC Range: 0.25 to 2 µg/mL
E. faecium
  MIC50: 1 µg/mL (≈ 0.69 µM)
  MIC90: 1 µg/mL (≈ 0.69 µM)
E. faecium; VRE
  MIC50: > 64 µg/mL
  MIC90: > 64 µg/mL
S. aureus; S. aureus [MRSA] (31 isolates)
  MIC Range: 0.5 to 2 µg/mL
S. aureus; S. aureus [MSSA] (32 isolates)
  MIC Range: 0.5 to 1 µg/mL
S. aureus; MRSA
  MIC50: 1 µg/mL (≈ 0.69 µM)
  MIC90: 1 µg/mL (≈ 0.69 µM)
S. aureus; MSSA
  MIC50: 1 µg/mL (≈ 0.69 µM)
  MIC90: 1 µg/mL (≈ 0.69 µM)
S. pneumoniae; [16]
  MIC Range: 0.06 to 0.25 µg/mL
S. pneumoniae; Streptococcus pneumoniae
  MIC50: 0.25 µg/mL (≈ 0.173 µM)
  MIC90: 0.25 µg/mL (≈ 0.173 µM)
S. epidermidis; S. epidermidis [MRSE] (32 isolates)
  MIC Range: 1 to 2 µg/mL
S. epidermidis; [15]
  MIC Range: 1 to 2 µg/mL
S. epidermidis
  MIC50: 2 µg/mL (≈ 1.38 µM)
  MIC90: 2 µg/mL (≈ 1.38 µM)
S. epidermidis; MRSE
  MIC50: 2 µg/mL (≈ 1.38 µM)
  MIC90: 2 µg/mL (≈ 1.38 µM)
S. pyogenes; S. pyogenes (32 isolates)
  MIC Range: 0.25 to 0.5 µg/mL
S. pyogenes; Streptococcus pyogenes
  MIC50: 0.25 µg/mL (≈ 0.173 µM)
  MIC90: 0.25 µg/mL (≈ 0.173 µM)
S. haemolyticus; S. haemolyticus (33 isolates)
  MIC Range: 0.5 to 2 µg/mL
S. haemolyticus
  MIC50: 1 µg/mL (≈ 0.69 µM)
  MIC90: 1 µg/mL (≈ 0.69 µM)
[1]; Streptococcus
  MIC50: 0.25 µg/mL (≈ 0.173 µM)
  MIC90: 0.5 µg/mL (≈ 0.345 µM)
[1]; [17]
  MIC Range: 0.25 to 1 µg/mL

## Penicillin
P. acnes
  MIC Range: 0.03 to 0.5 µg/mL
S. agalactiae; S. agalactiae (31 isolates)
  MIC50: 0.03 µg/mL
  MIC90: 1 µg/mL
  MIC Range: ≦0.015-2 μg/mL
S. pneumoniae; [16]
  MIC50: ≦0.015 μg/mL
  MIC90: 0.06 µg/mL
  MIC Range: ≦0.015-0.12 μg/mL
S. pyogenes; S. pyogenes (32 isolates)
  MIC50: ≦0.015 μg/mL
  MIC90: ≦0.015 μg/mL
  MIC Range: ≦0.015-0.25 μg/mL
[1]; [17]
  MIC50: ≦0.015 μg/mL
  MIC90: ≦0.015 μg/mL
  MIC Range: ≦0.015-0.03 μg/mL
